Measured values taken from US4485110A, “β-Lactam compounds, and use” (priority 1980, dated 1984).
Like-named read-outs stand apart in the source and are kept apart here.

Experiments:
Test in all cases: β-Lactamase inhibitory activity: antibiotic MIC alone or in combination
Assay type in all cases: cell-based
S. marcescens US20 = conditions: for MIC: Serratia marcescens
Description: (§1) These tables show the MIC values of amoxycillin, cephaloridine, ticarcillin and apalcillin against a number of β-lactamase producing organisms.

K. aerogenes I112 = conditions: for MIC: Klebsiella aerogenes
Description: as §1

S. aureus Russell = conditions: Staphylococcus aureus
Description: as §1

E. coli JT39R+ = conditions: for MIC: Escherichia coli
Description: as §1

P. aeruginosa A = conditions: Pseudomonas aeruginosa
Description: as §1

P. vulgaris WO91 = conditions: for MIC: Proteus vulgaris
Description: as §1

K. aerogenes Ba95R+ = conditions: Klebsiella aerogenes
Description: as §1

C. freundii B10R+ = conditions: Citrobacter freundii
Description: as §1

P. rettgeri WM16 = conditions: for MIC: Providencia rettgeri
Description: as §1

P. mirabilis 889 = test system: P. mirabilis 889
Description: as §1

P. morganii 1580 = test system: P. morganii 1580
Description: as §1

P. mirabilis 977 = test system: P. mirabilis 977
Description: as §1

K. aerogenes A = conditions: Klebsiella aerogenes
Description: as §1

C. freundii E8 = conditions: for MIC: Citrobacter freundii
Description: as §1

E. coli JT410 C+ = conditions: for MIC: Escherichia coli
Description: as §1

P. aeruginosa Dalgleish = conditions: Pseudomonas aeruginosa
Description: as §1

E. coli JT20R+ = conditions: Escherichia coli
Description: as §1

S. aureus MB9 = conditions: Staphylococcus aureus
Description: as §1

E. coli 0111 = test system: E. coli 0111
Description: as §1

E. cloacae N1 = conditions: for MIC: Enterobacter cloacae
[1] = apalcillin alone, read-out: Apalcillin MIC
[2] = cephaloridine alone, read-out: Cephaloridine MIC
[3] = ticarcillin alone, read-out: Ticarcillin MIC

## CC1(C)S[C@@H]2[C@H](NC(=O)[C@H](NC(=O)c3cnc4cccnc4c3O)c3ccccc3)C(=O)N2[C@H]1C(=O)O [Apalcillin]
S. marcescens US20; US20, apalcillin alone, read-out: Apalcillin MIC
  MIC: 5 mg/L
K. aerogenes I112; I112, read-out: Apalcillin MIC, apalcillin alone
  MIC: 25 mg/L
S. aureus Russell; [1]
  MIC: 250 mg/L
E. coli JT39R+; read-out: Apalcillin MIC, apalcillin alone
  MIC: 1000 mg/L
P. aeruginosa A; [1]
  MIC: 2.5 mg/L
P. vulgaris WO91; WO91, apalcillin alone, read-out: Apalcillin MIC
  MIC: 10 mg/L
K. aerogenes Ba95R+; read-out: Apalcillin MIC
  MIC: > 1000 mg/L
C. freundii B10R+; read-out: Apalcillin MIC
  MIC: > 1000 mg/L
P. rettgeri WM16; WM16, apalcillin alone, read-out: Apalcillin MIC
  MIC: 10 mg/L
P. mirabilis 889; Proteus mirabilis, 889, apalcillin alone, read-out: Apalcillin MIC
  MIC: > 1000 mg/L
P. morganii 1580; Morganella morganii, 1580, apalcillin alone, read-out: Apalcillin MIC
  MIC: 1000 mg/L
P. mirabilis 977; Proteus mirabilis, 977, apalcillin alone, read-out: Apalcillin MIC
  MIC: 2.5 mg/L
K. aerogenes A; [1]
  MIC: 10 mg/L
C. freundii E8; E8, apalcillin alone, read-out: Apalcillin MIC
  MIC: 2.5 mg/L
E. coli JT410 C+; [1]
  MIC: 25 mg/L
P. aeruginosa Dalgleish; [1]
  MIC: > 1000 mg/L
E. coli JT20R+; read-out: Apalcillin MIC
  MIC: > 1000 mg/L
S. aureus MB9; MB9, apalcillin alone, read-out: Apalcillin MIC
  MIC: 50 mg/L
E. coli 0111; Escherichia coli, 0111, apalcillin alone, read-out: Apalcillin MIC
  MIC: 2.5 mg/L
E. cloacae N1; N1, apalcillin alone, read-out: Apalcillin MIC
  MIC: 5 mg/L

## O=C(Cc1cccs1)N[C@@H]1C(=O)N2C(C(=O)[O-])=C(C[n+]3ccccc3)CS[C@H]12 [Cephaloridine]
S. marcescens US20; US20, cephaloridine alone, read-out: Cephaloridine MIC
  MIC: 1000 mg/L
S. marcescens US20; cephaloridine alone
  Cephaloridine MIC: > 1000 mg/L
K. aerogenes I112; I112, read-out: Cephaloridine MIC, cephaloridine alone
  MIC: 5 mg/L
E. coli JT39R+; read-out: Cephaloridine MIC, cephaloridine alone
  MIC: 5 mg/L
E. coli JT39R+; cephaloridine alone
  Cephaloridine MIC: 10 mg/L
P. aeruginosa A; [2]
  MIC: > 1000 mg/L
P. vulgaris WO91; WO91, cephaloridine alone, read-out: Cephaloridine MIC
  MIC: 1000 mg/L
P. vulgaris WO91; cephaloridine alone
  Cephaloridine MIC: > 1000 mg/L
K. aerogenes Ba95R+; read-out: Cephaloridine MIC
  MIC: 100 mg/L
C. freundii B10R+; read-out: Cephaloridine MIC
  MIC: > 1000 mg/L
P. rettgeri WM16; WM16, cephaloridine alone, read-out: Cephaloridine MIC
  MIC: 1000 mg/L
P. rettgeri WM16; cephaloridine alone
  Cephaloridine MIC: > 1000 mg/L
P. morganii 1580; Morganella morganii, 1580, cephaloridine alone, read-out: Cephaloridine MIC
  MIC: 1000 mg/L
P. morganii 1580; cephaloridine alone
  Cephaloridine MIC: > 1000 mg/L
P. mirabilis 977; Proteus mirabilis, 977, cephaloridine alone, read-out: Cephaloridine MIC
  MIC: 10 mg/L
P. mirabilis 977; cephaloridine alone
  Cephaloridine MIC: 5.0 mg/L
K. aerogenes A; [2]
  MIC: 2.5 mg/L
C. freundii E8; E8, cephaloridine alone, read-out: Cephaloridine MIC
  MIC: 500 mg/L
E. coli JT410 C+; [2]
  MIC: 50 mg/L
E. coli JT410 C+; cephaloridine alone
  Cephaloridine MIC: 100 mg/L
P. aeruginosa Dalgleish; [2]
  MIC: > 1000 mg/L
E. coli JT20R+; read-out: Cephaloridine MIC
  MIC: 25 mg/L
S. aureus MB9; MB9, cephaloridine alone, read-out: Cephaloridine MIC
  MIC: < 0.2 mg/L
E. coli 0111; Escherichia coli, 0111, cephaloridine alone, read-out: Cephaloridine MIC
  MIC: 2.5 mg/L
E. coli 0111; cephaloridine alone
  Cephaloridine MIC: 5.0 mg/L
E. cloacae N1; N1, cephaloridine alone, read-out: Cephaloridine MIC
  MIC: 500 mg/L
E. cloacae N1; cephaloridine alone
  Cephaloridine MIC: 1000 mg/L

## CC1(C)S[C@@H]2[C@H](NC(=O)[C@H](C(=O)O)c3ccsc3)C(=O)N2[C@H]1C(=O)O [Ticarcillin]
S. marcescens US20; US20, ticarcillin alone, read-out: Ticarcillin MIC
  MIC: 5 mg/L
K. aerogenes I112; I112, read-out: Ticarcillin MIC, ticarcillin alone
  MIC: 500 mg/L
K. aerogenes I112; ticarcillin alone
  Ticarcillin MIC: 250 mg/L
S. aureus Russell; [3]
  MIC: 25 mg/L
E. coli JT39R+; read-out: Ticarcillin MIC, ticarcillin alone
  MIC: > 1000 mg/L
P. aeruginosa A; [3]
  MIC: 25 mg/L
K. aerogenes Ba95R+; read-out: Ticarcillin MIC
  MIC: > 1000 mg/L
C. freundii B10R+; read-out: Ticarcillin MIC
  MIC: > 1000 mg/L
P. mirabilis 889; Proteus mirabilis, 889, ticarcillin alone, read-out: Ticarcillin MIC
  MIC: > 1000 mg/L
P. mirabilis 977; Proteus mirabilis, 977, ticarcillin alone, read-out: Ticarcillin MIC
  MIC: 1 mg/L
K. aerogenes A; [3]
  MIC: 100 mg/L
C. freundii E8; E8, ticarcillin alone, read-out: Ticarcillin MIC
  MIC: 2.5 mg/L
C. freundii E8; ticarcillin alone
  Ticarcillin MIC: 5.0 mg/L
P. aeruginosa Dalgleish; [3]
  MIC: > 1000 mg/L
E. coli JT20R+; read-out: Ticarcillin MIC
  MIC: > 1000 mg/L
S. aureus MB9; MB9, ticarcillin alone, read-out: Ticarcillin MIC
  MIC: 10 mg/L
E. coli 0111; Escherichia coli, 0111, ticarcillin alone, read-out: Ticarcillin MIC
  MIC: 5 mg/L
E. cloacae N1; N1, ticarcillin alone, read-out: Ticarcillin MIC
  MIC: 2.5 mg/L
